According to US11725012B2, “Imidazo[1,5-a]pyrazine derivatives as PI3K δ inhibitors” (priority 2016, dated 2023):
Like-named read-outs stand apart in the source and are kept apart here.

Columns and labels:
Format in all cases: biochemical
[1] = target: recombinant PI3K (p110δ/p85α) (Homo sapiens, UniProt O00329); assay: PI3Kδ ADP-Glo kinase assay
Protocol: Compounds disclosed herein were tested for inhibition of PI3Kδ kinase activity using commercial ADP-Glo™ Kinase Assay (Promega Corporation) and following the manufacture's instruction. Briefly, recombinant PI3K (p110δ/p85α) enzyme, lipid kinase substrate and a serial dilution of compounds disclosed herein were incubated for 0.5 hr at room temperature. ATP was added to initiate the kinase reaction. After incubation for 1 hr at room temperature, ADP-Glo™ reagent was added to terminate the kinase reaction and deplete the remaining ATP. After incubation for 1 hr at room temperature, kinase detection reagent was added to simultaneously convert ADP to ATP and allow the newly synthesized ATP to be measured using a luciferase/luciferin reaction. After incubation for 0.5 hr at room temperature, the luminescence generated was measured on a PHERAstar FS plate reader (BMG LABTECH), The residual enzyme activity in presence of increasing concentrations of compounds was calculated based on the luminescence. The IC50 for each compound was derived from fitting the data to the four-parameter logistic equation by Graphpad Prism software.

[2] = target: recombinant PI3K (p110α/p85α) (Homo sapiens, UniProt P42336); assay: PI3Kα ADP-Glo kinase assay
recombinant PI3K (p110α/p85α), sequence (P42336 whole entry): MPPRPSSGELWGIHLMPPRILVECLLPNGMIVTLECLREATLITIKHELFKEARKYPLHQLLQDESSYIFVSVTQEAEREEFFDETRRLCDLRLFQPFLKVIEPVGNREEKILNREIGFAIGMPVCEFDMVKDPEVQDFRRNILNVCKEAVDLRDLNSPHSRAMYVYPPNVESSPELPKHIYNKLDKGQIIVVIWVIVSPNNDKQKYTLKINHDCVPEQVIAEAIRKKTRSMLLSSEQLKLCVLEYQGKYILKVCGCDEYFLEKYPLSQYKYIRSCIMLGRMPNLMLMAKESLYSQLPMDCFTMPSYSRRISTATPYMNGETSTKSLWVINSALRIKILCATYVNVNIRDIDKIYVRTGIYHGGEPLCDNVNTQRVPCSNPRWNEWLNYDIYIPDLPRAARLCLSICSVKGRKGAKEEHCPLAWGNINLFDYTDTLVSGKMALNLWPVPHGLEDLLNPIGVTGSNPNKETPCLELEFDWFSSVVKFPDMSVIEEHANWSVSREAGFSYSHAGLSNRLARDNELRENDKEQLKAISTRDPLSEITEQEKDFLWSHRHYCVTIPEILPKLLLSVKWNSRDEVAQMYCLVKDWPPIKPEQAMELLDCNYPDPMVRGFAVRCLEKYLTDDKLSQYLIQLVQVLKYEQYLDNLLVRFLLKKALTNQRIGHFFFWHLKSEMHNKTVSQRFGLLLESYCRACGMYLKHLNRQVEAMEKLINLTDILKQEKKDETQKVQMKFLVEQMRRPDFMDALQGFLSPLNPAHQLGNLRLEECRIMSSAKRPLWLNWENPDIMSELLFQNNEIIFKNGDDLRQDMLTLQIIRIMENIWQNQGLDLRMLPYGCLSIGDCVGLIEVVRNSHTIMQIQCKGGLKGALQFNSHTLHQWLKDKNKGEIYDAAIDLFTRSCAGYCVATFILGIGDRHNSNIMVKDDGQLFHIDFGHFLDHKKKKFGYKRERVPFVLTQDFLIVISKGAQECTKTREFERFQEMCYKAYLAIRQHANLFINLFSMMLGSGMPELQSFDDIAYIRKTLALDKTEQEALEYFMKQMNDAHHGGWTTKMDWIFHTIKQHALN
recombinant PI3K (p110α/p85α), sequence (P27986 whole entry partner): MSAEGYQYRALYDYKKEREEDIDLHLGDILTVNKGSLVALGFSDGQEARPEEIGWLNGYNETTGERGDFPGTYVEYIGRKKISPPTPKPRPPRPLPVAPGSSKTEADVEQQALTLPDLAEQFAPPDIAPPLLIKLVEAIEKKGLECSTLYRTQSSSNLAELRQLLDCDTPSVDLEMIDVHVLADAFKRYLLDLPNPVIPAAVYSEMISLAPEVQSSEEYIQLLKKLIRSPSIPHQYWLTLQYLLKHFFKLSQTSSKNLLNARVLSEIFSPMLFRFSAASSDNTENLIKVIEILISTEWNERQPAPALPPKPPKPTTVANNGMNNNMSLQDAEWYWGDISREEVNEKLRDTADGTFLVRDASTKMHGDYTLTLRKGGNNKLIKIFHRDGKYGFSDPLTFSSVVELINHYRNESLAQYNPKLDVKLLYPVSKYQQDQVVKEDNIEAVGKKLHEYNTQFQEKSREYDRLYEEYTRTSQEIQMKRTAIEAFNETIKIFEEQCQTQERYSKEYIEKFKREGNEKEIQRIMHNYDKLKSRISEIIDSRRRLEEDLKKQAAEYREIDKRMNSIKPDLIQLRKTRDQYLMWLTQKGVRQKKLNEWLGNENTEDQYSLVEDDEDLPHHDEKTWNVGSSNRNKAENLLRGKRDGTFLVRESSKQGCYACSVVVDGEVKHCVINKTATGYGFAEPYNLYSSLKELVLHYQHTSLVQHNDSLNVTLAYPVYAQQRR

PI3K (p110γ) = PI3K (p110γ) (Homo sapiens, UniProt P48736); assay: PI3Kγ ADP-Glo kinase assay
PI3K (p110γ), sequence (P48736 whole entry): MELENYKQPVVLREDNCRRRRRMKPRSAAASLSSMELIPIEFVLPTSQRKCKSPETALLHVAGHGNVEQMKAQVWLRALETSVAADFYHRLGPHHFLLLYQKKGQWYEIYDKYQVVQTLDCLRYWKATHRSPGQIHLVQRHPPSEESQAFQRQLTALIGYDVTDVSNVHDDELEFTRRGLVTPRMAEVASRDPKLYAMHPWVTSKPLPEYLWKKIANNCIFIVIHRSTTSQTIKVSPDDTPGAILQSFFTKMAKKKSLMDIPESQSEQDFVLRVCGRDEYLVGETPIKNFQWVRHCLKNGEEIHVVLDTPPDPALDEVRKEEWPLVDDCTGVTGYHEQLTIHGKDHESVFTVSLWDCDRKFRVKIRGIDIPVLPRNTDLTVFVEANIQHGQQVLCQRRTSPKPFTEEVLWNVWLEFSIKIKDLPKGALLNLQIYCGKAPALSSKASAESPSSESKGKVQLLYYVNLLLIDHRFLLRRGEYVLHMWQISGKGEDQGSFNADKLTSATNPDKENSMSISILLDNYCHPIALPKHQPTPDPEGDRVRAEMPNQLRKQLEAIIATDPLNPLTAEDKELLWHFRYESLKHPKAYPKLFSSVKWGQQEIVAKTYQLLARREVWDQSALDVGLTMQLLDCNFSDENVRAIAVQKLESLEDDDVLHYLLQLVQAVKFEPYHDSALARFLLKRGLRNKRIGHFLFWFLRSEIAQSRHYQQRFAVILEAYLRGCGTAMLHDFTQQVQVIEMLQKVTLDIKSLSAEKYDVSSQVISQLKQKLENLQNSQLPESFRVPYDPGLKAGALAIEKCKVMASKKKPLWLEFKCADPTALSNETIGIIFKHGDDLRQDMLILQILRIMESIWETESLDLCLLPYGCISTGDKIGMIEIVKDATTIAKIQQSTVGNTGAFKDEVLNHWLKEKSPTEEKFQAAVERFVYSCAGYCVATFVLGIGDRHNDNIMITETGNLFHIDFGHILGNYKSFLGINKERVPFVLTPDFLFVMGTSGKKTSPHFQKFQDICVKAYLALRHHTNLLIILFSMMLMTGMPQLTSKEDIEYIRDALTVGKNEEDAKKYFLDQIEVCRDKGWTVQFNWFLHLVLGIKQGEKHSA

PI3K (p110β/p85α) = PI3K (p110β/p85α) (Homo sapiens, UniProt P42338); assay: PI3Kβ ADP-Glo kinase assay
PI3K (p110β/p85α), sequence (P42338 whole entry): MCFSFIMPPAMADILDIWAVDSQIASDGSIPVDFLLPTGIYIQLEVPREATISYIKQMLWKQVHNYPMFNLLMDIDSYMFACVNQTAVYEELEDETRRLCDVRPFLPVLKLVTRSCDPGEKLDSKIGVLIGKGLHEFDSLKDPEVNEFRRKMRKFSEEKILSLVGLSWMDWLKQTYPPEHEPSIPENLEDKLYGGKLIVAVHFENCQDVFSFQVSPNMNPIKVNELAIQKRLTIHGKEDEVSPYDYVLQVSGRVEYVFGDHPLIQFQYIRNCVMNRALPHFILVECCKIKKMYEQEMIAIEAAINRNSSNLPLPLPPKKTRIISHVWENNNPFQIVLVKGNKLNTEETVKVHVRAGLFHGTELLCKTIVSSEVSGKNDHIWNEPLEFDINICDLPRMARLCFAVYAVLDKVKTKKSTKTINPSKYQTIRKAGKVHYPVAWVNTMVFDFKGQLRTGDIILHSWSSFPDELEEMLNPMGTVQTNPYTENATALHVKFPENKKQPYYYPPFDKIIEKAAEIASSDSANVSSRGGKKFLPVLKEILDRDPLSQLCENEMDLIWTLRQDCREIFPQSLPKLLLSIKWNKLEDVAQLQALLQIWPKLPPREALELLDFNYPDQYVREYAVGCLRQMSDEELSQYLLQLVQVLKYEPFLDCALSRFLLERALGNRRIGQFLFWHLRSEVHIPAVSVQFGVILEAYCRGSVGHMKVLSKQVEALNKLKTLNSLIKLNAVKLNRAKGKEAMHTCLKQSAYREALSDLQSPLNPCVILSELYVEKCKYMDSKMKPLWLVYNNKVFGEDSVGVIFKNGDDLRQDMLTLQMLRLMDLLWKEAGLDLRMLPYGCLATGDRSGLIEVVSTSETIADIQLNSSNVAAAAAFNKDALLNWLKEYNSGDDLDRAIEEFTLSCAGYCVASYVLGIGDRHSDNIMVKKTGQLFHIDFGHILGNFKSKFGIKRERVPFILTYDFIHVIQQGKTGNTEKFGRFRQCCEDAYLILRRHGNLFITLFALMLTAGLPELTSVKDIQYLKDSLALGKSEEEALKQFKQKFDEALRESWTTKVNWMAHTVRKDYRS
PI3K (p110β/p85α), sequence (P27986 whole entry partner): as the sequence (P27986 whole entry partner) above

[3] = read-out: PI3Kδ Enzyme activity IC50
[4] = read-out: PI3Kα Enzyme activity IC50
[5] = read-out: PI3Kγ Enzyme activity IC50
[6] = read-out: PI3Kβ Enzyme activity IC50

recombinant PI3K (p110δ/p85α), sequence (O00329 whole entry): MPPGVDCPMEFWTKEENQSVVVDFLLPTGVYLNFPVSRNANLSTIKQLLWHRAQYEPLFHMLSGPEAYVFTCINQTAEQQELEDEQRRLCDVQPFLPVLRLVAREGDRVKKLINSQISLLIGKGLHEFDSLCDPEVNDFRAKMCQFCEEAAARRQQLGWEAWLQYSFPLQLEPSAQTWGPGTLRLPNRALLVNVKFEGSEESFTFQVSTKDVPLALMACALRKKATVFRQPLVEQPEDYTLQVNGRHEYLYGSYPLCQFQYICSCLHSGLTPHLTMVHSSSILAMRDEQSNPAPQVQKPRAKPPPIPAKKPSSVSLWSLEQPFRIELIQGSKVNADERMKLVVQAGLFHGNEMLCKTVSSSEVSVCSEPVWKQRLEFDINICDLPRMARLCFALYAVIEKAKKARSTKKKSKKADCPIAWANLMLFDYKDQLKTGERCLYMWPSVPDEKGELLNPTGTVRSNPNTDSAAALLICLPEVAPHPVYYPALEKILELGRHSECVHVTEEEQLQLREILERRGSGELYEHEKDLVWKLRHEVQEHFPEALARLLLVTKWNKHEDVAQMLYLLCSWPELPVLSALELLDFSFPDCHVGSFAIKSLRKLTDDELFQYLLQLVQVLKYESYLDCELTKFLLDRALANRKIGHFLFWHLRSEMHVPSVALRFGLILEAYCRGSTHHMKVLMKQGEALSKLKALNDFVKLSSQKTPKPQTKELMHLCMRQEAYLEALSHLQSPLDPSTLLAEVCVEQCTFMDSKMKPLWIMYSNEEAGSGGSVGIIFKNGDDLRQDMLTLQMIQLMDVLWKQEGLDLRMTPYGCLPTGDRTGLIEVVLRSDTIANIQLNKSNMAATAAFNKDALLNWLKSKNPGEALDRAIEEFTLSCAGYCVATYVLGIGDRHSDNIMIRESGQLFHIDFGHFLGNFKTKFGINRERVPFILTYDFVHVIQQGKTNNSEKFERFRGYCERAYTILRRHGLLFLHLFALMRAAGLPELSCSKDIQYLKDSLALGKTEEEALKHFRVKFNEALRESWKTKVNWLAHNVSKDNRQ
recombinant PI3K (p110δ/p85α), sequence (P27986 whole entry partner): as the sequence (P27986 whole entry partner) above

SMILES | IC50 [1, 3] [nM] | IC50 [2, 4] [nM] | IC50 (PI3K (p110γ); [5]) [nM] | IC50 (PI3K (p110β/p85α); [6]) [nM] | IC50 ([1]; PI3Kδ Enzyme activity IC50) [nM] | IC50 ([2]; PI3Kα Enzyme activity IC50) [nM] | IC50 (PI3K (p110γ); PI3Kγ Enzyme activity IC50) [nM] | IC50 (PI3K (p110β/p85α); PI3Kβ Enzyme activity IC50) [nM] | inhibition at 0.5 µM ([2]; read-out: PI3Kα max inhibition (%) at 0.5 μM) [%] | inhibition at 0.5 µM (PI3K (p110γ); read-out: PI3Kγ max inhibition (%) at 0.5 μM) [%] | inhibition at 0.5 µM (PI3K (p110β/p85α); read-out: PI3Kβ max inhibition (%) at 0.5 μM) [%]
CCOc1c(C(C)c2nc(Cl)c3c(N)nccn23)cc(Cl)c(C)c1N1CCOCC1 (single isomer, unassigned) [Compound 51A, 1-chloro-3-(1-(5-chloro-2-ethoxy-4-methyl-3-morpholinophenyl)ethyl)imidazo[1,5-a]pyrazin-8-amine] | 0.79 | 2100 | 1200 | 480 | – | – | – | – | – | – | –
Cc1nc(C(C)c2cc(Cl)c(F)c(-c3ccc(C#N)nc3)c2OC(C)C)n2ccnc(N)c12 (single isomer, unassigned) [Compound 59A, 5-(3-(1-(8-amino-1-methylimidazo[1,5-a]pyrazin-3-yl)ethyl)-5-chloro-6-fluoro-2-isopropoxyphenyl)picolinonitrile] | 1.2 | 6300 | 2700 | 1400 | – | – | – | – | – | – | –
CCOc1c(C(C)c2nc(Cl)c3c(N)nccn23)cc(Cl)c(C)c1-c1ccc(C)nc1 (centres unmarked) [Compound 8, 1-chloro-3-(1-(5-chloro-2-ethoxy-4-methyl-3-(6-methylpyridin-3-yl)phenyl)ethyl) imidazo[1,5-a]pyrazin-8-amine] | 1.1 | 1400 | 260 | 350 | – | – | – | – | – | – | –
CCOc1c([C@H](C)c2nc(Cl)c3c(N)nccn23)cc(Cl)c(C)c1-c1ccc(C)nc1 [Compound 8A] | 0.51 | 1300 | 300 | 580 | – | – | – | – | – | – | –
CCOc1c(C(C)c2nc(-c3cccc(O)c3)c3c(N)nccn23)cc(Cl)c(C)c1-c1ccc(C(F)(F)F)nc1 (centres unmarked) [Compound 10, 3-(8-amino-3-(1-(5-chloro-2-ethoxy-4-methyl-3-(6-(trifluoromethyl)pyridin-3-yl)phenyl)ethyl)imidazo[1,5-a]pyrazin-1-yl)phenol] | 9.1 | 3200 | 1500 | 2700 | – | – | – | – | – | – | –
CCOc1c([C@H](C)c2nc(Cl)c3c(N)nccn23)cc(Cl)c(C)c1-c1ccc(C(=O)N(C)C)nc1 [Compound 11, (S)-5-(3-(1-(8-amino-1-chloroimidazo[1,5-a]pyrazin-3-yl)ethyl)-5-chloro-2-ethoxy-6-methylphenyl)-N,N-dimethylpicolinamide] | 0.54 | 540 | 190 | 360 | – | – | – | – | – | – | –
CCOc1c([C@H](C)c2nc(Cl)c3c(N)nccn23)cc(Cl)c(C)c1-c1ccc(C(=O)O)nc1 [Compound 12] | 1.7 | 1300 | 67 | 870 | – | – | – | – | – | – | –
CCOc1c(C(C)c2nc(Cl)c3c(N)nccn23)cc(Cl)c(F)c1-c1ccc(C(=O)N(C)C)nc1 (centres unmarked) [Compound 13, 5-(3-(1-(8-amino-1-chloroimidazo[1,5-a]pyrazin-3-yl)ethyl)-5-chloro-2-ethoxy-6-fluorophenyl)-N,N-dimethylpicolinamide] | 1.2 | 1200 | 480 | 400 | – | – | – | – | – | – | –
CCOc1c(C(C)c2nc(Cl)c3c(N)nccn23)cc(Cl)c(C)c1-c1ccc(=O)[nH]c1 (centres unmarked) [Compound 15, 5-(3-(1-(8-amino-1-chloroimidazo[1,5-a]pyrazin-3-yl)ethyl)-5-chloro-2-ethoxy-6-methylphenyl)pyridin-2(1H)-one] | 1.2 | 830 | 320 | 320 | – | – | – | – | – | – | –
CC(C)Oc1c(C(C)c2nc(Cl)c3c(N)nccn23)cc(Cl)c(F)c1-c1ccc(C(N)=O)nc1 (centres unmarked) [Compound 17, 5-(3-(1-(8-amino-1-chloroimidazo[1,5-a]pyrazin-3-yl)ethyl)-5-chloro-6-fluoro-2-isopropoxyphenyl)picolinamide] | 1.5 | 3100 | 1900 | 1600 | – | – | – | – | – | – | –
CC(C)Oc1c([C@H](C)c2nc(Cl)c3c(N)nccn23)cc(Cl)c(F)c1-c1ccc(C(N)=O)nc1 [Compound 17B] | 0.28 | 970 | 520 | 670 | – | – | – | – | – | – | –
CC(C)Oc1c(C(C)c2nc(Cl)c3c(N)nccn23)cc(Cl)c(F)c1-c1ccc(C(=O)O)nc1 (centres unmarked) [Compound 18, 5-(3-(1-(8-amino-1-chloroimidazo[1,5-a]pyrazin-3-yl)ethyl)-5-chloro-6-fluoro-2-isopropoxyphenyl)picolinic Acid] | 1.3 | 7100 | 340 | 1100 | – | – | – | – | – | – | –
CC(C)Oc1c([C@H](C)c2nc(Cl)c3c(N)nccn23)cc(Cl)c(F)c1-c1ccc(C(=O)O)nc1 [Compound 18A] | 0.56 | 4600 | 160 | 190 | – | – | – | – | – | – | –
COc1c(C(C)c2nc(Br)c3c(N)nccn23)cc(Cl)c(C)c1-c1ccc(C)nc1 (centres unmarked) [Compound 19, 1-bromo-3-(1-(5-chloro-2-methoxy-4-methyl-3-(6-methylpyridin-3-yl)phenyl)ethyl) imidazo[1,5-a]pyrazin-8-amine] | – | – | – | – | 1.3 | 580 | 210 | 180 | – | – | –
COc1ccc(-c2c(C)c(Cl)cc(C(C)c3nc(Br)c4c(N)nccn34)c2OC)cn1 (centres unmarked) [Compound 20, 1-bromo-3-(1-(5-chloro-2-methoxy-3-(6-methoxypyridin-3-yl)-4-methylphenyl)ethyl)imidazo[1,5-a]pyrazin-8-amine] | 3.2 | 2300 | 740 | 930 | – | – | – | – | – | – | –
COc1c(C(C)c2nc(Br)c3c(N)nccn23)cc(Cl)c(C)c1-c1ccc(Cl)nc1 (centres unmarked) [Compound 22, 1-bromo-3-(1-(5-chloro-3-(6-chloropyridin-3-yl)-2-methoxy-4-methylphenyl)ethyl) imidazo[1,5-a]pyrazin-8-amine] | 1.5 | 1400 | 760 | 390 | – | – | – | – | – | – | –
COc1c(C(C)c2nc(Br)c3c(N)nccn23)cc(Cl)c(C)c1-c1ccc(N2CCOCC2)nc1 (centres unmarked) [Compound 23, 1-bromo-3-(1-(5-chloro-2-methoxy-4-methyl-3-(6-morpholinopyridin-3-yl)phenyl)ethyl)imidazo[1,5-a]pyrazin-8-amine] | 15 | – | – | – | – | – | – | – | 16 | -19 | 12
CCOc1c(C(C)c2nc(Br)c3c(N)nccn23)cc(Cl)c(C)c1-c1ccc(C(F)(F)F)nc1 (centres unmarked) [Compound 24, 1-bromo-3-(1-(5-chloro-2-ethoxy-4-methyl-3-(6-(trifluoromethyl)pyridin-3-yl)phenyl)ethyl)imidazo[1,5-a]pyrazin-8-amine] | 2.9 | 4000 | 2100 | 1600 | – | – | – | – | – | – | –
CCOc1c(C(C)c2nc(Cl)c3c(N)nccn23)cc(Cl)c(C)c1-c1ccc(C(F)(F)F)nc1 (centres unmarked) [Compound 25, 1-chloro-3-(1-(5-chloro-2-ethoxy-4-methyl-3-(6-(trifluoromethyl)pyridin-3-yl)phenyl)ethyl)imidazo[1,5-a]pyrazin-8-amine] | 2.6 | 3000 | 1400 | 2600 | – | – | – | – | – | – | –
CCOc1c(C(C)c2nc(Br)c3c(N)nccn23)cc(Cl)c(C)c1-c1ccc(Cl)nc1 (centres unmarked) [Compound 26, 1-bromo-3-(1-(5-chloro-3-(6-chloropyridin-3-yl)-2-ethoxy-4-methylphenyl)ethyl) imidazo[1,5-a]pyrazin-8-amine] | 1.4 | 1500 | 500 | 330 | – | – | – | – | – | – | –
